Results as given in ChEMBL document CHEMBL1909046, “DrugMatrix in vitro pharmacology data”.

Columns and labels:
[1] = DRUGMATRIX: Glutamate, NMDA, Phencyclidine radioligand binding (ligand: [3H] TCP); assay type: cell membranes, Rattus norvegicus, Wistar, Cerebral cortex, Membrane; settings: Not Active = under 50% inhibition at 10 µM
[2] = molecular target: T1, Amine oxidase [flavin-containing] A (Homo sapiens, UniProt P21397); test: DRUGMATRIX: Monoamine Oxidase MAO-A enzyme inhibition (substrate: Kynuramine); parameters: species or system BTI-TN-5B1-4; settings: bti-tn-5b1-4; Not Active = under 50% inhibition at 10 µM
T1 sequence (P21397 whole entry): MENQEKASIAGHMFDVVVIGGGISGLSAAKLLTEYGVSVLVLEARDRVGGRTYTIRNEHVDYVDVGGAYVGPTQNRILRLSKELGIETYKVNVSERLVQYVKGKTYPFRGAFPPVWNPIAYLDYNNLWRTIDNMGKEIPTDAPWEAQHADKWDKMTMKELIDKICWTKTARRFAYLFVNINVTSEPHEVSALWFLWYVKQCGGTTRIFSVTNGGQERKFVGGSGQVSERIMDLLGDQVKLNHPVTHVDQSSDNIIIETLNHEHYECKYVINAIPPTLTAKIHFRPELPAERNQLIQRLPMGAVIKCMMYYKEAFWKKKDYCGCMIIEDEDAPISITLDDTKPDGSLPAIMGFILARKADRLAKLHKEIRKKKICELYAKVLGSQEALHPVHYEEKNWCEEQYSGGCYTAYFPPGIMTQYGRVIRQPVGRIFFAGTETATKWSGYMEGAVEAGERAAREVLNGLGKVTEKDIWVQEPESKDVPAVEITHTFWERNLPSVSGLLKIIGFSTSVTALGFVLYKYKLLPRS

[3] = molecular target: T2, Alpha-1D adrenergic receptor (Homo sapiens, UniProt P25100); assay type: cell membranes, HEK293, Membrane; note: in other assays of this panel Not Active means under 50% inhibition at 10 µM
T2 sequence (P25100 whole entry): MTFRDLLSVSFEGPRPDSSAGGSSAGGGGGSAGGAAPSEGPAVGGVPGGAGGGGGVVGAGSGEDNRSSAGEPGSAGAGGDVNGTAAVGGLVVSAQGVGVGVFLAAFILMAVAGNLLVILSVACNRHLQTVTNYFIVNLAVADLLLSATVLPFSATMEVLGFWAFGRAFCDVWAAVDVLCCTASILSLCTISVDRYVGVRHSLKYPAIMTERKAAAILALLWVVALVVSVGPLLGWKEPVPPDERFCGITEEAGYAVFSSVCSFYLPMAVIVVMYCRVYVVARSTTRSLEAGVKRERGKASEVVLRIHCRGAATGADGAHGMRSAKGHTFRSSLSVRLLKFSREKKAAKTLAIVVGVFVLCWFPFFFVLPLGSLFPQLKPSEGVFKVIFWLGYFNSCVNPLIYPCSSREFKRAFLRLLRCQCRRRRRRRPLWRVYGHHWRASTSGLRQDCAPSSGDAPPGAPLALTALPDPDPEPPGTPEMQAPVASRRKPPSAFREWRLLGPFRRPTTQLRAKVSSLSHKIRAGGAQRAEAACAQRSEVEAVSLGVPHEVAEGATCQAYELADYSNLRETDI

Glycine receptor = Glycine receptor (Rattus norvegicus, UniProt P22771+P24524+P07727+P20781); assay type: cell membranes, Wistar, Spinal cord, Membrane; note: in other assays of this panel Not Active means under 50% inhibition at 10 µM
[4] = molecular target: cGMP-specific 3',5'-cyclic phosphodiesterase (Homo sapiens, UniProt O76074); test: DRUGMATRIX: Phosphodiesterase PDE5 enzyme inhibition (substrate: [3H]cGMP + cGMP); assay type: tissue-based; settings: platelet; Not Active = under 50% inhibition at 10 µM
[5] = DRUGMATRIX: Phosphodiesterase PDE3 enzyme inhibition (substrate: [3H]cAMP + cAMP); assay type: tissue-based, Homo sapiens; settings: platelet; Not Active = under 50% inhibition at 10 µM
[6] = molecular target: Mitogen-activated protein kinase 3 (Homo sapiens, UniProt P27361); test: DRUGMATRIX: Protein Serine/Threonine Kinase, ERK1 enzyme inhibition (substrate: Myelin Basic Protein); parameters: species or system Escherichia coli; settings: Not Active = under 50% inhibition at 10 µM
Sequence of Mitogen-activated protein kinase 3 (P27361 whole entry): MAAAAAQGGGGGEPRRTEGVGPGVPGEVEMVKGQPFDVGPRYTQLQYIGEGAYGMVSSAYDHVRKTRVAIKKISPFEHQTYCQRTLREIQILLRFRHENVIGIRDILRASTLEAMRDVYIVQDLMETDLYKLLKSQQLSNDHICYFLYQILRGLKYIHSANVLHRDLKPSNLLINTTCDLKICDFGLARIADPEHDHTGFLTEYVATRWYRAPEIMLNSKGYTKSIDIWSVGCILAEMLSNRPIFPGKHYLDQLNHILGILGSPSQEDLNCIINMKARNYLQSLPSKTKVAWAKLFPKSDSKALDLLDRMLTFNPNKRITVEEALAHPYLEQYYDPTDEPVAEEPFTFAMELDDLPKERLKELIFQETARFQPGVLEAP

[7] = molecular target: 5-hydroxytryptamine receptor 6 (Homo sapiens, UniProt P50406); assay type: cell membranes, HeLa, Membrane; settings: for Ki: read-out: Ki; for all read-outs here: in other assays of this panel Not Active means under 50% inhibition at 10 µM
Sequence of 5-hydroxytryptamine receptor 6 (P50406 whole entry): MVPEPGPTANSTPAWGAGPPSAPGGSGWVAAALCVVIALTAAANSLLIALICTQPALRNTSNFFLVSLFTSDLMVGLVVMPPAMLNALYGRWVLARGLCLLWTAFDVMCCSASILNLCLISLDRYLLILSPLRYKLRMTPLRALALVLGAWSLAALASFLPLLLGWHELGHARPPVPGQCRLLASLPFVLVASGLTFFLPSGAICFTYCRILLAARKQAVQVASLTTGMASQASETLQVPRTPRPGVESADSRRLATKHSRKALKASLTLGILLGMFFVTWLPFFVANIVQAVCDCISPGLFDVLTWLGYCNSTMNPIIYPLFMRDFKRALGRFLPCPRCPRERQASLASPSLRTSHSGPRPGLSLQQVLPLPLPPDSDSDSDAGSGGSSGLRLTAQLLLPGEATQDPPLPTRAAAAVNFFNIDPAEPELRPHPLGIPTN

| Structure (SMILES) | IC50 [1] | Ki [1] | IC50 [2] | IC50 ([3]; hek293) | IC50 (Glycine receptor) | IC50 [4] | IC50 [5] | Ki [5] | IC50 [6] | IC50 ([7]; hela) | IC50 ([3]; read-out: IC50) | Ki ([3]; read-out: Ki) | IC50 ([7]; read-out: IC50) | Ki [7] |
| --- | --- | --- | --- | --- | --- | --- | --- | --- | --- | --- | --- | --- | --- | --- |
| CC(C)(C)NCC(O)c1cc(Cl)c(N)c(Cl)c1 (configuration not stated) [CLENBUTEROL] | Not Active | Not Active | Not Active | Not Active | Not Active | Not Active | Not Active | Not Active | Not Active | Not Active |  |  |  |  |
| CC(O)CO (configuration not stated) [PROPYLENE GLYCOL] | Not Active | Not Active | Not Active | Not Active | Not Active | Not Active | Not Active | Not Active | Not Active | Not Active |  |  |  |  |
| CC1Cc2ccccc2N1NC(=O)c1ccc(Cl)c(S(N)(=O)=O)c1 (configuration not stated) [INDAPAMIDE] | Not Active | Not Active | Not Active | Not Active | Not Active | Not Active | Not Active | Not Active | Not Active | Not Active |  |  |  |  |
| c1ccc(Nc2ccc(Nc3ccccc3)cc2)cc1 | Not Active | Not Active | Not Active | Not Active | Not Active | Not Active | Not Active | Not Active | Not Active | Not Active |  |  |  |  |
| COc1cc2nc(N3CCN(C(=O)C4COc5ccccc5O4)CC3)nc(N)c2cc1OC (configuration not stated) [DOXAZOSIN] | Not Active | Not Active | Not Active |  | Not Active | Not Active | Not Active | Not Active | Not Active | Not Active |  |  |  |  |
| CCOc1ccc(NC(C)=O)cc1 [PHENACETIN] | Not Active | Not Active | Not Active | Not Active | Not Active | Not Active | Not Active | Not Active | Not Active | Not Active |  |  |  |  |
| CN(C)CCCN1c2ccccc2Sc2ccc(Cl)cc21 [CHLORPROMAZINE] | Not Active | Not Active | Not Active |  | Not Active | Not Active | Not Active | Not Active | Not Active |  |  |  |  |  |
| CC(C)[C@H]1C(=O)N2CCC[C@H]2[C@]2(O)O[C@](NC(=O)[C@@H]3C=C4c5cccc6[nH]cc(c56)C[C@H]4N(C)C3)(C(C)C)C(=O)N12 [ERGOCORNINE] | Not Active | Not Active | Not Active |  | Not Active | Not Active | Not Active | Not Active | Not Active |  | 18 nM | 8.75 nM | 15 nM | 7.09 nM |
| CC(C)(Oc1ccc(Cl)cc1)C(=O)O [CLOFIBRIC ACID] | Not Active | Not Active | Not Active | Not Active | Not Active | Not Active | Not Active | Not Active | Not Active | Not Active |  |  |  |  |
| CCOC(=O)C1=C(COCCN)NC(C)=C(C(=O)OC)C1c1ccccc1Cl (configuration not stated) [AMLODIPINE] | Not Active | Not Active | Not Active | Not Active | Not Active | Not Active | Not Active | Not Active | Not Active |  |  |  |  |  |
| Cc1ccc(N(CC2=NCCN2)c2cccc(O)c2)cc1 [PHENTOLAMINE] | Not Active | Not Active | Not Active |  | Not Active | Not Active | Not Active | Not Active | Not Active | Not Active |  |  |  |  |
| CCCN1C[C@H](CSC)C[C@@H]2c3cccc4[nH]cc(c34)C[C@H]21 [PERGOLIDE] | Not Active | Not Active | Not Active |  | Not Active | Not Active | Not Active | Not Active | Not Active |  |  |  | 39 nM | 18 nM |
